Test results taken from patent publication US6403607B1, “Sulfonamide derivatives and drugs containing the same as the active ingredient” (priority 1998, dated 2002).
Values after ≈ are worked out from the molar mass of the structure shown. Like-named read-outs stand apart in the source and are kept apart here.

Assays:
[1] = test system: HCl-ethanol ulcer in the gland gastric region; test: HCl-ethanol ulcer; type: in vivo, Rats; settings: rats fasted 24 hours, drug oral, 60% ethanol containing 0.15 N hydrochloric acid 1 ml/rat after one hour, size of ulcer one hour later; dose not given
Protocol: HCl-ethanol Ulcer Rats were fasted for 24 hours and orally administered with a drug. After one hour, 60% ethanol containing 0.15 N hydrochloric acid (1 ml/rat) was perorally administered to each rat. One hour after ethanol administration, the size of ulcer in the gland gastric region was measured for evaluation of anti-ulcer effects of the drug.

[2] = test system: ethanol ulcer in the gland gastric region; test: Ethanol ulcer; type: in vivo; settings: rats fasted 24 hours, drug oral, 99.5% ethanol 1 ml/rat after one hour, size of ulcer one hour later; for Suppression: dose not given
Protocol: Ethanol Ulcer Rats were fasted for 24 hours and orally administered with a drug. After one hour, 99.5% ethanol (1 ml/rat) was fed through oral administration. After one hour of ethanol administration, the abdomens of the rats were dissected and the size of ulcer in the gland gastric region was measured for each rat.

Helicobacter pylori = test: Anti-Helicobacter-pylori action (agar plate dilution MIC); type: cell-based; settings: clinically isolated 10 bacterial strains, agar plate dilution method
Protocol: Anti-Helicobacter-pylori Action
Using clinically isolated 10 bacterial strains, the minimum inhibitory concentration (MIC) was measured according to the agar plate dilution method.

[3] = Helicobacter pylori, read-out: MIC

Structure (SMILES)	MIC (Helicobacter pylori)	Suppression [2]	further results
CN(C)CCN(c1cccc(NCCOc2ccc(Cl)cc2)c1)S(=O)(=O)c1ccc(Cl)cc1.Cl [Example 55, N-[2-(Dimethylamino)ethyl]-N-(4-chlorobenzenesulfonyl)-N′-[2-(4-chlorophenoxy)ethyl]-m-phenylenediamine Hydrochloride]			Suppression [1]: 88%
Cc1ccc(S(=O)(=O)N(CCOCCN)c2ccccc2NCCOc2ccc(Cl)cc2)cc1 [Example 35, N-[2-(2-Amino)ethoxyethyl]-N-(p-toluenesulfonyl)-N′-[2-(4-chlorophenoxy)ethyl]-o-phenylenediamine]		99%	
CN(C)CCN(c1ccccc1NCCOc1ccc(Cl)cc1)S(=O)(=O)c1cccc(Cl)c1.Cl [Example 52, N-[2-(Dimethylamino)ethyl]-N-(3-chlorobenzenesulfonyl)-N′-[2-(4-chlorophenoxy)ethyl]-o-phenylenediamine Hydrochloride]			Suppression [1]: 87%
CN(C)CCN(c1ccccc1N(C)CCOc1ccc(Cl)cc1)S(=O)(=O)c1ccc(Cl)cc1.Cl [Example 69]			Suppression [1]: 99%
CN(C)CCN(c1ccccc1N(CCOc1ccc(Cl)cc1)Cc1ccccc1)S(=O)(=O)c1ccc(Cl)cc1.Cl [Example 71, N-[2-(Dimethylamino)ethyl]-N-(4-chlorobenzenesulfonyl)-N′-benzyl-N′-[2-(4-chlorophenoxy)ethyl]-o-phenylenediamine Hydrochloride]			Suppression [1]: 99%
NCCN(c1ccccc1NCCSc1ccc(Cl)cc1)S(=O)(=O)c1ccc(Cl)cc1 [Example 65, N-(2-Aminoethyl)-N-(4-chlorobenzenesulfonyl)-N′-[2-(4-Chlorophenylthio)ethyl]-o-phenylenediamine]			MIC (Helicobacter pylori; [3]): 6.25 to 25 µg/mL (≈ 12.6 to 50.4 µM)
NCCN(c1ccccc1NCCNc1ccc(Cl)cc1)S(=O)(=O)c1ccc(Cl)cc1 [Example 60, N-(2-Aminoethyl)-N-(4-chlorobenzenesulfonyl)-N′-[2-(4-chlorophenylamino)ethyl]-o-phenylenediamine]			MIC (Helicobacter pylori; [3]): 6.25 to 25 µg/mL (≈ 13 to 52.1 µM)
NCCOCCN(c1ccccc1NCCOc1ccc(Cl)cc1)S(=O)(=O)c1ccccc1 [Example 33]		83%	
COc1ccc(S(=O)(=O)N(CCN)c2ccccc2NCCOc2ccc(Cl)cc2)cc1 [Example 11, N-(2-Aminoethyl)-N-(4-methoxybenzenesulfonyl)-N′-[2-(4-chlorophenoxy)ethyl]-o-phenylenediamine]		96%	
CN(C)CCN(c1ccccc1NCCOc1ccc(Br)cc1)S(=O)(=O)c1ccc(Cl)cc1.Cl [Example 54, N-[2-(Dimethylamino)ethyl]-N-(4-chlorobenzenesulfonyl)-N′-[2-(4-bromophenoxy)ethyl]-o-phenylenediamine Hydrochloride]			Suppression [1]: 77%
CN(C)CCN(c1ccc(NCCOc2ccc(Cl)cc2)cc1)S(=O)(=O)c1ccccc1Cl.Cl [Example 56, N-[2-(Dimethylamino)ethyl]-N-(2-chlorobenzenesulfonyl)-N′-[2-(4-chlorophenoxy)ethyl]-p-phenylenediamine Hydrochloride]			Suppression [1]: 88%
Cc1ccc(S(=O)(=O)N(CCN(C)C)c2ccccc2NCCOc2ccc(Cl)cc2)cc1.Cl [Example 36, N-[2-(Dimethylamino)ethyl]-N-(p-toluenesulfonyl)-N′-[2-(4-chlorophenoxy)ethyl]-o-phenylenediamine Hydrochloride]			Suppression [1]: 92%
O=S(=O)(c1ccc(Cl)cc1)N(CCO)c1ccccc1NCCOc1ccc(Cl)cc1 [Example 9, N-(4-Chlorobenzenesulfonyl)-N-(2-hydroxyethyl]-N′-[2-(4-chlorophenoxy)ethyl]-o-phenylenediamine]		85%	MIC (Helicobacter pylori; [3]): 25 to 50 µg/mL (≈ 51.9 to 104 µM)
O=S(=O)(c1ccc(Cl)cc1)N(CCN1CCCC1)c1ccccc1NCCOc1ccc(Cl)cc1 [Example 8, N-(4-Chlorobenzenesulfonyl)-N-[2-(1-pyrolidino)ethyl]-N′-[2-(4-chlorophenoxy)ethyl]-o-phenylenediamine]	1.56 to 6.25 µg/mL	86%	
O=S(=O)(c1ccc(Cl)cc1)N(CCCc1ccncc1)c1ccccc1NCCOc1ccc(Cl)cc1 [Example 10, N-(4-Chlorobenzenesulfonyl)-N-[3-(4-pyridyl)propyl]-N′-[2-(4-chlorophenoxy)ethyl]-o-phenylenediamine]		82%	MIC (Helicobacter pylori; [3]): 25 to 100 µg/mL (≈ 44.9 to 180 µM)
NCCN(c1ccccc1NCC=Cc1ccc(Cl)cc1)S(=O)(=O)c1ccc(Cl)cc1 [Example 62, N-(2-Aminoethyl)-N-(4-chlorobenzenesulfonyl)-N′-(4-chlorocinnamyl)-o-phenylenediamine]			MIC (Helicobacter pylori; [3]): 1.56 to 12.5 µg/mL (≈ 3.27 to 26.2 µM)
NCCN(c1cccnc1NCCOc1ccc(Cl)cc1)S(=O)(=O)c1ccc(Cl)cc1 [Example 106, 2-[2-(4-Chlorophenoxy)ethyl]amino-3-[N-(2-aminoethyl)-N-(4-chlorobenzenesulfonyl)]aminopyridine]		98%	ED50 [2]: 8.4 mg/kg
CNC(=NC#N)NCCOCCN(c1ccccc1NCCOc1ccc(Cl)cc1)S(=O)(=O)c1ccc(Cl)cc1 [Example 14, N-(4-Chlorobenzenesulfonyl)-N-[2-(2-cyano-3-methylguanidino)ethoxyethyl]-N′-[2-(4-chlorophenoxy)ethyl]-o-phenylenediamine]			MIC (Helicobacter pylori; [3]): 6.25 to 50 µg/mL (≈ 10.3 to 82.6 µM)
NCCOCCN(c1ccccc1NCCOc1ccc(F)cc1)S(=O)(=O)c1ccc(Cl)cc1 [Example 47, N-[2-(2-Amino)ethoxyethyl]-N-(4-chlorobenzenesulfonyl)-N′-[2-(4-fluorophenoxy)ethyl]-o-phenylenediamine]		100%	
NCCOCCN(c1ccccc1NCCOc1ccc(Cl)cc1)S(=O)(=O)c1ccc(F)cc1 [Example 41, N-[2-(2-Amino)ethoxyethyl]-N-(4-fluorobenzenesulfonyl)-N′-[2-(4-chlorophenoxy)ethyl]-o-phenylenediamine]		93%	

Continued, in another order:

MIC (Helicobacter pylori)	Structure (SMILES)	Suppression [2]	further results
3.13 to 12.5 µg/mL	CN(C)CCN(c1cccnc1N1CCN(c2ccc(Cl)cc2)CC1)S(=O)(=O)c1ccc(Cl)cc1 [Example 138, 2-[4-(4-Chlorophenyl)-1-piperazino]-3-[N-(2-dimethylaminoethyl)-N-(4-chlorobenzenesulfonyl)]aminopyridine]		
25 to 50 µg/mL	NCCN(c1cccnc1OCCNc1ccc(Cl)cc1)S(=O)(=O)c1ccc(Cl)cc1 [Example 113, 2-[2-(4-Chlorophenyl)aminoethoxy]-3-[N-(2-aminoethyl)-N-(4-chlorobenzenesulfonyl)]aminopyridine]	87%	
6.25 to 12.5 µg/mL	O=S(=O)(Nc1cccnc1NCCNc1ccc(Cl)cc1)c1ccc(Cl)cc1 [Example 77]		
25 to 100 µg/mL	O=S(=O)(c1ccc(Cl)cc1)N(CCN1CCNCC1)c1cccnc1NCCNc1ccc(Cl)cc1 [Example 97, 3-[N-(4-Chlorobenzenesulfonyl)-N-[2-(1-piperazinyl)ethyl]]amino-2-[2-(4-chlorophenyl)aminoethyl]aminopyridine]	81%	
12.5 to 50 µg/mL	COc1ccc(NCCNc2ncccc2N(CCN)S(=O)(=O)c2ccc(OC)cc2)cc1 [Example 112, 3-[N-(2-Aminoethyl)-N-(4-methoxybenzenesulfonyl)]amino-2-[2-(4-methoxyphenyl)aminoethyl]aminopyridine]		
>100 µg/mL	NCCN(c1cccnc1N1CCN(c2ccc(Cl)cc2)C(=O)C1=O)S(=O)(=O)c1ccc(Cl)cc1 [Example 92, 3-[N-(4-Chlorobenzenesulfonyl)-N-(2-aminoethyl)]amino-2-[4-(4-chlorophenyl)-2,3-dioxo-1-piperadino]pyridine]		
6.25 to 12.5 µg/mL	CCN(CCNc1ncccc1N(CCN)S(=O)(=O)c1ccc(Cl)cc1)c1ccc(Cl)cc1 [Example 116, 2-[2-[N-(4-Chlorophenyl)-N-ethyl]aminoethyl]amino-3-[N-(2-aminoethyl)-N-(4-chlorobenzenesulfonyl)]aminopyridine]	99%	
12.5 to 25 µg/mL	Cc1ccc(NCCNc2ncccc2N(CCN)S(=O)(=O)c2ccc(C)cc2)cc1 [Example 114, 3-[N-(2-Aminoethyl)-N-(p-toluenesulfonyl)]amino-2-[2-(p-tolyl)aminoethyl]aminopyridine]		
12.5 to 25 µg/mL	NCCN(c1ccccc1OCCNc1ccc(Cl)cc1)S(=O)(=O)c1ccc(Cl)cc1 [Example 122, 1-[2-(4-Chlorophenyl)aminoethoxy]-2-[N-(2-aminoethyl)-N-(4-chlorobenzenesulfonyl)]aminobenzene]	99%	
3.13 to 12.5 µg/mL	NCCN(c1cccnc1N1CCN(c2ccc(Cl)cc2)CC1)S(=O)(=O)c1ccc(Cl)cc1 [Example 136, 2-[4-(4-Chlorophenyl)-1-piperazino]-3-[N-(2-aminoethyl)-N-(4-chlorobenzenesulfonyl)]aminopyridine]	80%	
25 µg/mL (≈ 38.2 µM)	NCCN(c1cccnc1NCCN(c1ccc(Cl)cc1)S(=O)(=O)c1ccc(Cl)cc1)S(=O)(=O)c1ccc(Cl)cc1 [Example 111, 2-[2-[N-(4-Chlorophenyl)-N-(4-chlorobenzenesulfonyl)]aminoethyl]amino-3-[N-(2-aminoethyl)-N-(4-chlorobenzenesulfonyl)]aminopyridine]	100%	
25 to 50 µg/mL	O=C(NCCOCCN(c1ccccc1NCCOc1ccc(Cl)cc1)S(=O)(=O)c1ccc(Cl)cc1)NC1CCCCC1 [Example 17, N-(4-Chlorobenzenesulfonyl)-N-[2-(2-cyclohexylureido)ethoxyethyl]-N′-[2-(4-chlorophenoxy)ethyl]-o-phenylenediamine]		
